Consider 36 compounds from PubChem BioAssay AID624435 (The Scripps Research Institute Molecular Screening Center, 2012).

Active and inactive are the calls of the source.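 Rule for the calls: active = inhibition of 30% or more at 100 µM, inferred from the inactive rule; inactive = inhibition below 30% at 100 µM.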

The target of this assay is Serine/threonine-protein phosphatase 5 (Homo sapiens) (UniProt P53041). Kind of assay: PP5 inhibitors on histone substrate, late-stage follow-up, orthogonal assay for PP5 inhibitor project, biochemical, radiolabel, round 5, powder samples (AID 624435). To be noted: purified PP5c, 33P-phosphohistone dephosphorylation, scintillation; at 50 µM; stronger effect = higher value.
Sequence of Serine/threonine-protein phosphatase 5 (Homo sapiens) (P53041 whole entry, looked up): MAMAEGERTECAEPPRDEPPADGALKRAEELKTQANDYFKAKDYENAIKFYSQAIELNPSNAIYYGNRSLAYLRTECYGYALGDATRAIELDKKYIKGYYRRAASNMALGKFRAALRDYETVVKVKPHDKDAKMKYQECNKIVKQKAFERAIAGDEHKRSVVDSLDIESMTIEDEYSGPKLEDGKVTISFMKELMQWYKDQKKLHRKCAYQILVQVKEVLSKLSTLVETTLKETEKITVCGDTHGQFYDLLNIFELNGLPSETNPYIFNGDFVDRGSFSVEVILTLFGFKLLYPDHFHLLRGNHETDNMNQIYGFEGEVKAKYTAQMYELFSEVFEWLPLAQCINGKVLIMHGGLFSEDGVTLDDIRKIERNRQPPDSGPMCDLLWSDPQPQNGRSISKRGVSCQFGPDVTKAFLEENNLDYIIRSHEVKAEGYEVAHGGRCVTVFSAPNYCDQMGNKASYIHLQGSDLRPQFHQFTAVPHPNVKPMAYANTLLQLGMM

Broadly, the inhibition is the drop in the measured response relative to a control, in per cent. Regarding `O=C(O)c1cccn1-c1ccccc1`, the inhibition was -3.17% (inactive).

Regarding `O=C(O)c1ncn[nH]1`, the inhibition is 2.61% (inactive).

On to `O=C(O)c1cc(-c2ccccc2)ncn1`, for which the inhibition was -6.61% (inactive).

On to `Cc1onc(C(=O)O)c1Cn1cccn1`, for which the inhibition was -2.66% (inactive).

In the case of `O=C(O)c1cn(Cc2ccccc2)nn1`, the inhibition is -4.42% (inactive).

`COC(=O)c1n[nH]nc1-c1ccccc1`: the inhibition is 1.67% (inactive).

In the case of `O=C(O)c1n[nH]nc1-c1cccnc1`, the inhibition is 2.2% (inactive).

For the compound `O=C(O)c1c[nH]cc1-c1ccccc1`, the inhibition is -2.04% (inactive).

As for `O=C(O)c1cn[nH]n1`, the inhibition is -0.0127% (inactive).

In the case of `O=C(O)c1n[nH]nc1-c1ccccc1-c1ccccc1`, the inhibition was 41.2%.

`O=C(O)c1ccccc1-n1cccc1`: the inhibition was -7.51% (inactive).

With `O=C(O)c1cc(-c2ccccc2)n[nH]1`, the inhibition is -4.55% (inactive).

On to `O=C(O)c1c(-c2ccccc2)nnc2ccccc12`, for which the inhibition is -0.78% (inactive).

Turning to `O=C(O)c1nc(-n2cccc2)n[nH]1`, the inhibition was -1.61% (inactive).

As to `O=C(O)c1nc2ncccn2n1`, the inhibition was -1.84% (inactive).

In the case of `O=C(O)CCn1nnc2ccccc21`, the inhibition is 0.241% (inactive).

As for `O=C(O)c1cnn2ccccc12`, the inhibition was -5.1% (inactive).

On to `O=C(O)c1nn(Cc2ccccc2)nc1Cl`, for which the inhibition was 0.71% (inactive).

`O=C(O)c1ccccc1-c1nn[nH]n1`: the inhibition is 0.116% (inactive).

On to `O=C(O)c1csc(Nc2ccccc2)n1`, for which the inhibition was -0.948% (inactive).

As for `Cc1ccccc1-c1n[nH]nc1C(=O)O`, the inhibition is 39%.

With `Cc1n[nH]nc1C(=O)O`, the inhibition was -4.84% (inactive).

In the case of `Cc1cccc(-c2noc(C)c2C(=O)O)c1`, the inhibition is -5.14% (inactive).

Regarding `O=C(O)c1nnn(-c2ccccc2)c1-c1ccccc1`, the inhibition was 0.733% (inactive).

For `O=C(O)c1n[nH]c2ccccc12`, the inhibition is -1.07% (inactive).

Consider `O=C(O)Cn1nnc2ccccc21`, for which the inhibition is 0.388% (inactive).

For `O=C(O)c1cc2ccccn2n1`, the inhibition is -0.0487% (inactive).

`O=C(O)c1cc2cccnc2[nH]1`: the inhibition is -2.5% (inactive).

Turning to `Cc1cccc(-n2cnc(C(=O)O)c2)c1`, the inhibition was 2.84% (inactive).

Consider `O=C(O)c1cn[nH]c1-c1ccccc1`, for which the inhibition is -5.7% (inactive).

As to `O=C(O)c1ccccc1-c1ccccc1`, the inhibition is -5.88% (inactive).

For `CC(C)c1ccccc1-c1n[nH]nc1C(=O)O`, the inhibition is 30.2%.

Take `Cc1scc(C(=O)O)c1-c1ccccc1`: the inhibition is -4.13% (inactive).

`CCc1ccccc1-c1n[nH]nc1C(=O)O`: the inhibition is 44.3%.

As to `CC(C)Oc1ccccc1-c1n[nH]nc1C(=O)O`, the inhibition is 67.5%.

Regarding `O=C(O)c1n[nH]nc1-c1ccccn1`, the inhibition was 31.5%.
